Source: ChEMBL document CHEMBL1151522, “Syntheses of homoserine phosphate analogs as potential inhibitors of bacterial threonine synthase” (Bioorg Med Chem Lett, 1994)

What was measured:
[1] = Inhibition of threonine synthase in Escherichia coli
Escherichia coli [2] = assay: Inhibition of Escherichia coli threonine synthase expressed as inactivation constant
[3] = Inhibition of threonine synthase in Escherichia coli; c: indicates No inhibition at 10 mM
Escherichia coli [4] = assay: Inhibition of Escherichia coli threonine synthase expressed as inactivation constant; d: indicates competitive inhibitor

Compound	Ki [1]	K inact (Escherichia coli [2])	Ki [3]	K inact (Escherichia coli [4])
NC(CNCP(=O)(O)O)C(=O)O (stereo not drawn)	59 µM	1.44 min⁻¹	–	–
NC(CC#CP(=O)(O)O)C(=O)O (stereo not drawn)	–	–	No inhibition	–
NC(C/C=C/P(=O)(O)O)C(=O)O (stereo not drawn)	540 µM	–	–	Competitive inhibitor
NC(CSCP(=O)(O)O)C(=O)O (stereo not drawn)	33 µM	–	–	d
NC(/C=C\CP(=O)(O)O)C(=O)O (stereo not drawn)	100000 µM	1.5 min⁻¹	–	–
NC(COCP(=O)(O)O)C(=O)O (stereo not drawn)	–	–	No inhibition	–
NC(/C=C/CP(=O)(O)O)C(=O)O (stereo not drawn)	400 µM	0.25 min⁻¹	–	–
NC(C/C=C\P(=O)(O)O)C(=O)O (stereo not drawn)	–	–	No inhibition	–
